Several values for one entry are separate records, joined by “and”; a condition that tells them apart may be missing. Equal entries are not always repeated. Where two headings read alike, the source gives them in different places.
Columns and labels:
[1] = tested on: sunflower lines carrying the A122T mutation; assay type: in vivo, Helianthus annuus; details: 14 DAT; for Phytotoxicity Index, Dif A205V-A122T: A205V mean minus A122T mean; for biomass accumulation, Mean / plant height, Mean / root dry weight, Mean: six A122T genotypes; for Phytotoxicity Index, Mean: three A122T genotypes
Method: (§1) A greenhouse study was conducted to quantify and contrast the imazapir sensivity of the mutants A122T and A205V in different genetic backgrounds at the whole plant level in sunflower. Seeds of the different sunflower lines that were used in this study were obtained under field conditions.
(§2) Seeds were sown in Petri dishes and, after germination, plantlets were transplanted to pots of 10 cm of diameter in a potting media consisting of equal parts of vermiculite, soil and sand. Plants were grown in a greenhouse under natural light conditions supplemented with 400 W sodium halide lamps to provide a 16 hrs daylength. Day/night temperatures were 25 and 20° C., respectively. At the V2 stage 10 plants of each genotype were randomly assigned to each treatment consisting of […] imazapir doses (0, 40, 80, 160, 240, 320, 400 and 480 g ai/ha), and a zero-time biomass determination. Experiment was arranged as a randomized block design with a full factorial (sunflower line×treatment) arrangement of treatments and 10 replications.
(§3) On the day of herbicide application ten plants of each genotype were cut at the cotyledonal node and dried at 60° C. for 48 hrs zero-time for dried weight determination.
(§4) Height was determined as the distance between the cotyledonal node and the apex of each plant. For root biomass determination, each plant was taken from the pot and the potting media was washed out from the roots. Above ground biomass data from each line were converted to biomass accumulation after application by subtracting the appropriate average zero-time biomass from each sample. Dry biomass data were converted to percentages of the untreated control plants within each line to allow direct comparisons between groups. […]

[2] = tested on: sunflower TH11 (Hybrid, A122T); assay type: in vivo, Helianthus annuus; details: 14 DAT
Method: as §1, §2, §3, §4

CC(C)C1(C)N=C(c2ncccc2C(=O)O)NC1=O (stereo not shown) [imazapyr]
root dry weight, Dif with Control ([1]; A122T mean, 5x (400 g ai/ha)): 21.3 % of untreated plots | plant height, Dif with Control ([1]; A122T mean, 6x (480 g ai/ha)): 15.8 % of untreated plots | root dry weight, Dif with Control ([1]; A122T mean, 6x (480 g ai/ha)): 38.3 % of untreated plots | biomass accumulation, Dif with Control ([1]; A122T mean, 6x (480 g ai/ha), listed as imazapir): 25 % of untreated plots and 25.4 % of untreated plots | Phytotoxicity Index, Dif A205V-A122T ([1]; 0.5x (40 g ai/ha)): −0.29 | Phytotoxicity Index, Dif A205V-A122T ([1]; 1x (80 g ai/ha)): −0.29 | Phytotoxicity Index, Dif A205V-A122T ([1]; 2x (160 g ai/ha)): 1.87 | Phytotoxicity Index, Dif A205V-A122T ([1]; 3x (240 g ai/ha)): 4.81 | Phytotoxicity Index, Dif A205V-A122T ([1]; 4x (320 g ai/ha)): 6.92 | Phytotoxicity Index, Dif A205V-A122T ([1]; 5x (400 g ai/ha)): 7.38 | Phytotoxicity Index, Dif A205V-A122T ([1]; 6x (480 g ai/ha)): 7.03 | biomass accumulation, Mean ([1]; 0.5x (40 g ai/ha)): 98.9 % of untreated plots | plant height, Mean ([1]; 0.5x (40 g ai/ha)): 99.4 % of untreated plots | root dry weight, Mean ([1]; 0.5x (40 g ai/ha)): 99.9 % of untreated plots | biomass accumulation, Mean ([1]; 1x (80 g ai/ha)): 96.8 % of untreated plots | plant height, Mean ([1]; 1x (80 g ai/ha)): 98.6 % of untreated plots | root dry weight, Mean ([1]; 1x (80 g ai/ha)): 97.5 % of untreated plots | biomass accumulation, Mean ([1]; 2x (160 g ai/ha)): 94.9 % of untreated plots | plant height, Mean ([1]; 2x (160 g ai/ha)): 97.3 % of untreated plots | root dry weight, Mean ([1]; 2x (160 g ai/ha)): 94.1 % of untreated plots | biomass accumulation, Mean ([1]; 3x (240 g ai/ha)): 92.8 % of untreated plots | plant height, Mean ([1]; 3x (240 g ai/ha)): 95.6 % of untreated plots | root dry weight, Mean ([1]; 3x (240 g ai/ha)): 89.4 % of untreated plots | biomass accumulation, Mean ([1]; 4x (320 g ai/ha)): 87.8 % of untreated plots | plant height, Mean ([1]; 4x (320 g ai/ha)): 93.7 % of untreated plots | root dry weight, Mean ([1]; 4x (320 g ai/ha)): 81.4 % of untreated plots | biomass accumulation, Mean ([1]; 5x (400 g ai/ha)): 79.3 % of untreated plots | plant height, Mean ([1]; 5x (400 g ai/ha)): 89.8 % of untreated plots | root dry weight, Mean ([1]; 5x (400 g ai/ha)): 78.7 % of untreated plots | biomass accumulation, Mean ([1]; 6x (480 g ai/ha)): 74.6 % of untreated plots | plant height, Mean ([1]; 6x (480 g ai/ha)): 84.2 % of untreated plots | root dry weight, Mean ([1]; 6x (480 g ai/ha)): 61.7 % of untreated plots | Phytotoxicity Index, Mean ([1]; 0.5x (40 g ai/ha)): 0.3 | Phytotoxicity Index, Mean ([1]; 1x (80 g ai/ha)): 0.3 | Phytotoxicity Index, Mean ([1]; 2x (160 g ai/ha)): 0.3 | Phytotoxicity Index, Mean ([1]; 3x (240 g ai/ha)): 0.3 | Phytotoxicity Index, Mean ([1]; 4x (320 g ai/ha)): 0.5 | Phytotoxicity Index, Mean ([1]; 5x (400 g ai/ha)): 0.8 | Phytotoxicity Index, Mean ([1]; 6x (480 g ai/ha)): 1.2 | Phytotoxicity Index ([2]; 0.5x (40 g ai/ha)): 0.4 | biomass accumulation (above ground dry weight) ([2]; 0.5x (40 g ai/ha)): 96.6 % of untreated plots | plant height ([2]; 0.5x (40 g ai/ha)): 100.4 % of untreated plots | root dry weight ([2]; 0.5x (40 g ai/ha)): 100 % of untreated plots | Phytotoxicity Index ([2]; 1x (80 g ai/ha)): 0.4 | biomass accumulation (above ground dry weight) ([2]; 1x (80 g ai/ha)): 93.9 % of untreated plots | plant height ([2]; 1x (80 g ai/ha)): 99.9 % of untreated plots | root dry weight ([2]; 1x (80 g ai/ha)): 99.0 % of untreated plots | Phytotoxicity Index ([2]; 2x (160 g ai/ha)): 0.4 | biomass accumulation (above ground dry weight) ([2]; 2x (160 g ai/ha)): 81.6 % of untreated plots | plant height ([2]; 2x (160 g ai/ha)): 92.0 % of untreated plots | root dry weight ([2]; 2x (160 g ai/ha)): 86.1 % of untreated plots | Phytotoxicity Index ([2]; 3x (240 g ai/ha)): 0.5 | biomass accumulation (above ground dry weight) ([2]; 3x (240 g ai/ha)): 75.8 % of untreated plots | plant height ([2]; 3x (240 g ai/ha)): 90.5 % of untreated plots | root dry weight ([2]; 3x (240 g ai/ha)): 81.5 % of untreated plots | Phytotoxicity Index ([2]; 4x (320 g ai/ha)): 1.0 | biomass accumulation (above ground dry weight) ([2]; 4x (320 g ai/ha)): 75.0 % of untreated plots | plant height ([2]; 4x (320 g ai/ha)): 90.8 % of untreated plots | root dry weight ([2]; 4x (320 g ai/ha)): 72.6 % of untreated plots | Phytotoxicity Index ([2]; 5x (400 g ai/ha)): 2.0 | biomass accumulation (above ground dry weight) ([2]; 5x (400 g ai/ha)): 60.1 % of untreated plots | plant height ([2]; 5x (400 g ai/ha)): 84.4 % of untreated plots | root dry weight ([2]; 5x (400 g ai/ha)): 68.9 % of untreated plots | Phytotoxicity Index ([2]; 6x (480 g ai/ha)): 2.5 | biomass accumulation (above ground dry weight) ([2]; 6x (480 g ai/ha)): 59.6 % of untreated plots | plant height ([2]; 6x (480 g ai/ha)): 84.4 % of untreated plots | root dry weight ([2]; 6x (480 g ai/ha)): 45.3 % of untreated plots
